In series [1] the target is PDGFRa (Homo sapiens, UniProt P16234). As to the kind of experiment: Inhibition profile at 500 nM: PDGFRa. It is filed as biochemical. The conditions noted are these: 500 nM test compound; Table 2; read-out: Percent inhibition PDGFRa. The protocol:
Then enzyme substrate is added as 10 μl of 2.5×FAM-labeled peptide+ATP solution to each well of the 384-well assay plate The reaction is allowed to proceed at 28° C. and quenched with the addition of 25 μl of stop buffer. The release of fluorescent FAM is quantitated as Percent inhibition=(max−conversion)/(max−min)*100.sp; “max” stands for DMSO control; “min” stands for low control. Convert conversion values to inhibition values. Percent inhibition=(max−conversion)/(max−min)*100. “max” stands for DMSO control; “min” stands for low control.

Series [2] can be described thus: Human liver microsome stability. Format: in vitro ADME. The note with it: human liver microsomes; read-out: Human liver microsome t1/2. In general terms: Microsomes from liver hold many membrane-bound enzymes, among them those of drug oxidation.
A short description of series [3]: Pharmacokinetic parameters in Sprague-Dawley rats. Also on record: AUC(0-t): concentration or dose not given beside the values. The note with it: rat, in vivo. The protocol: Various pharmacokinetic parameters of the compounds described herein were measured in Sprague-Dawley rats.
Series [4] has as its system mice treated with MPTP. Kind of series: Mouse MPTP neurotoxicity model. Format: in vivo. The note with it: for dopamine levels (protection of dopamine-secreting neurons): HPLC-ECD, FIG. 4; for pole test latency: day 14, FIG. 3, control about 5 seconds, MPTP about 30. The protocol:
Certain compounds of the present invention were evaluated using the MPTP neurotoxicity model. MPTP causes oxidative stress, which in turn causes c-Abl1 and/or c-Abl2 phosphorylation in the SNpc of mice treated with MPTP. MPTP administration according to this model produces a reliable, irreversible loss of DA neurons 7 days after the last injection, similar to that observed in PD. MPTP causes greater loss of DA neurons in SNpc and degeneration of DA nerve terminals in the caudate putamen. Many of the cell death signaling events observed in PD postmortem tissue are present in the MPTP model including oxidative stress, nitrosative stress, c-Abl activation, Parkin inactivation and PARIS and AIMP2 elevation and PARP activation. […] Because the model is relatively rapid, this model was used to assess dosing for future studies, and as a preliminary measure of efficacy.
The study design is depicted in FIG. 1. […] Wild type mice (n=5 per group) were divided into 4 treatment groups as follows: saline, MPTP, Drug and MPTP+Drug. Saline and MPTP groups were pre-treated with drug vehicle (unbuffered water) (20 animals total). Drug and MPTP+Drug groups received the test compounds for 6 days administered by oral gavage daily. On the seventh day, the saline and Drug groups received four intra-peritoneal (i.p.) injections of saline at 2 h intervals. The MPTP and MPTP+Drug groups received four intraperitoneal (i.p.) injections of MPTP·HCl (20 mg/kg free base) at 2 hr intervals. After the MPTP injection day, mice were treated for an additional 6 days with saline or an ATK inhibitor of the present invention. Mice in the saline and MPTP only groups received saline vehicle while the Drug and MPTP+Drug groups received an additional week of drug treatment. On the 14th day, mice were given a pole test, then sacrificed. Brain samples were processed for analysis of biogenic amine concentrations, including dopamine (DA), by high-performance liquid chromatography with electrochemical detection (HPLC-ECD). Loss of DA and its metabolites in the striatum is a consistently reliable indication of loss of DA neurons in the SNpc.

Series [5] deals with animal models of Parkinson's Disease. The conditions noted are these: literature (J. Neurosci. 31(1); Scientific Reports 4:4874); cited from earlier work.

The values below come from patent publication US12629371B2, “Compositions and methods for inhibiting kinases” (Inhibikase Therapeutics, Inc., priority 2016, dated 2026).

PDGFRa, sequence (P16234 24-1089): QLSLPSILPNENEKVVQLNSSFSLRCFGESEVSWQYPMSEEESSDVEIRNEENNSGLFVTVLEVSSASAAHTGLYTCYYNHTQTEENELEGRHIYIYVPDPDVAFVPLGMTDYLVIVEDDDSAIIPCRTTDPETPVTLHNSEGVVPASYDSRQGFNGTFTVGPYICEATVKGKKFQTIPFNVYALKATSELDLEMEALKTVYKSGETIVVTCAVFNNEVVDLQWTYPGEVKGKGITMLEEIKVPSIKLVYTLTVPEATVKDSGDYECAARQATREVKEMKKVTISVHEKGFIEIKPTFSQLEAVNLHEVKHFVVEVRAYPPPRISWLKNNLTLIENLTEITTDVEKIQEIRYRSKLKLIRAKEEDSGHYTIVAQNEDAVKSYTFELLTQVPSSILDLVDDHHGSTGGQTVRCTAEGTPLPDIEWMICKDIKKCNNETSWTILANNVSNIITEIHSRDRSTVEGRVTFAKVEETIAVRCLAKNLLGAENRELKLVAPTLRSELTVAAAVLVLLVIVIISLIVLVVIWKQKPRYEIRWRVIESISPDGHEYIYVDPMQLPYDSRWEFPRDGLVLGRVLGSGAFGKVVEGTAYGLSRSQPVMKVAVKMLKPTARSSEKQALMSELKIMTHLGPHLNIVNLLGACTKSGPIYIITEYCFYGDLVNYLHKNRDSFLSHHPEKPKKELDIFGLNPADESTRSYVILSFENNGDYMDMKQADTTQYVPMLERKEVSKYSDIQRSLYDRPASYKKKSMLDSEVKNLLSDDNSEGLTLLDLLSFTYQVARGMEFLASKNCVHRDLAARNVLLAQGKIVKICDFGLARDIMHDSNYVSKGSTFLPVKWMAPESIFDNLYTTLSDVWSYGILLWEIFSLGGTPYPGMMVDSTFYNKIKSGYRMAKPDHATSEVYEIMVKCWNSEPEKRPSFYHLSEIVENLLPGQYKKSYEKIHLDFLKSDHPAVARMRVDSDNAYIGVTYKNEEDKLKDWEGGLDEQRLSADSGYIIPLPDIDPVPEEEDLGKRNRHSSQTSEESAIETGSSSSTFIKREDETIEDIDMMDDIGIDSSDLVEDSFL

Turning to `Cc1ccnc(-c2cncc(-c3ccnc(Nc4cc(NC(=O)c5ccc(CN6CCN(C)CC6)cc5)ccc4C)n3)c2)c1` [Compound 830], the inhibition (in general, the drop in the measured response relative to a control, in per cent) at 0.5 µM in series [1] was determined as 100%. The half-life in series [2] is 0.326 h. In series [3], the AUC(0-t) – broadly, exposure summed from dosing to a finite time, without extrapolation to infinity – worked out at 3720 ± 1090 ng·h/mL; the Cmax – broadly, the peak of the concentration-time curve – worked out at 465 ± 115 ng/mL; the time to peak (Tmax) (as a rule, the time from dosing to the highest level) was determined as 4 h; the Vd – broadly, the apparent volume that relates the amount in the body to the concentration in plasma or blood – came to 6.3 ± 1.1 L/kg. Besides, in series [3], the bioavailability (commonly the share of a dose that reaches the circulation, judged against a reference dose that is usually intravenous) worked out at 47%; the clearance (usually the rate of elimination divided by the concentration) is 21.7 mL/min/kg; the half-life was 3.6 h.
Regarding `Cc1ccc(NC(=O)c2ccc(CN3CCN(C)CC3)cc2)cc1Nc1nccc(-c2cncc(-c3ccnn3C)c2)n1` [Compound 831], in series [1], the inhibition at 0.5 µM was determined as 100%.
For the compound `Cc1ccc(NC(=O)c2ccc(CN3CCN(C)CC3)cc2)cc1Nc1nccc(-c2cncc(-c3ccn(C)n3)c2)n1` [Compound 832], the inhibition at 0.5 µM in series [1] was determined as 100%. Besides, in series [2], the half-life amounted to 0.408 h. Further, in series [4], the “dopamine levels (protection of dopamine-secreting neurons)” value was “protected dopamine-secreting neurons from degeneration” and the pole test latency entry was “recovered to a near-normal latency time”. In series [3], the AUC(0-t) worked out at 3180 ± 930 ng·h/mL, the concentration peaked (Cmax) at 416 ± 84.5 ng/mL, the Tmax came out at 4 h and the Vd came out at 3.6 ± 1.8 L/kg. In series [3], this compound showed a bioavailability of 33%, a clearance of 21.7 mL/min/kg and a half-life of 2.6 h.
On to `Cc1ccc(NC(=O)c2ccc(CN3CCNCC3)cc2)cc1Nc1nccc(-c2cncc(-c3ccncc3)c2)n1` [Compound 870], for which the inhibition at 0.5 µM in series [1] was 100%.
Same read-out and setting: in the case of `Cc1ccc(NC(=O)c2ccc(CN3CCNCC3)cc2)cc1Nc1nccc(-c2cncc(-c3ccccn3)c2)n1` [Compound 880] it was 100%.
On the same count and under the same terms, with `Cc1ccc(NC(=O)c2ccc(CN3CCN(C)CC3)cc2)cc1Nc1nccc(-c2cncc(-c3ccns3)c2)n1` [Compound 8170] the figure was 100%.
Consider `Cc1cc(-c2cncc(-c3ccnc(Nc4cc(NC(=O)c5ccc(CN6CCN(C)CC6)cc5)ccc4C)n3)c2)sn1` [Compound 8190], for which, in series [1], the inhibition at 0.5 µM is 100%.
Still for that read-out and setting: in the case of `Cc1ccc(NC(=O)c2ccc(CN3CCN(C)CC3)cc2)cc1Nc1nccc(-c2cncc(-c3nncs3)c2)n1` [Compound 8250] it was 100%; in that of `Cc1nnc(-c2cncc(-c3ccnc(Nc4cc(NC(=O)c5ccc(CN6CCN(C)CC6)cc5)ccc4C)n3)c2)s1` [Compound 8260], 100%.
Consider `Cc1ccc(NC(=O)c2ccc(CN3CCN(C)CC3)cc2)cc1Nc1nccc(-c2cncc(-c3nccs3)c2)n1` [Compound 8270], for which the half-life in series [2] is 0.348 h. Moreover, in series [4], the “dopamine levels (protection of dopamine-secreting neurons)” value is “protected dopamine-secreting neurons from degeneration” and the pole test latency result was “not statistically significant”. In series [3], the area under the curve AUC(0-t) was 1760 ± 268 ng·h/mL, the Cmax amounted to 210 ± 31 ng/mL, the Tmax is 5.3 h and the Vd turned out to be 7.8 ± 0.7 L/kg. In series [3], this compound gave a bioavailability of 46%, a clearance of 43.3 mL/min/kg and a half-life of 3.3 h.
As for `Cc1cnc(-c2cncc(-c3ccnc(Nc4cc(NC(=O)c5ccc(CN6CCN(C)CC6)cc5)ccc4C)n3)c2)s1` [Compound 8280], the inhibition at 0.5 µM in series [1] turned out to be 100%.
For the compound `Cc1csc(-c2cncc(-c3ccnc(Nc4cc(NC(=O)c5ccc(CN6CCN(C)CC6)cc5)ccc4C)n3)c2)n1` [Compound 8290], in series [1], the inhibition at 0.5 µM was found to be 100%.
In the case of `Cc1ccc(NC(=O)c2ccc(CN3CCN(C)CC3)cc2)cc1Nc1nccc(-c2cccnc2)n1` [imatinib, reference compound], the “effectiveness in animal models of Parkinson's Disease” value in series [5] is recorded as “appear effective”. Besides, in series [3], the AUC(0-t) was 2730 ng·h/mL, the Cmax amounted to 241 ng/mL, the Tmax was found to be 4 h and the bioavailability was ~53%.
